Source: patent US7928238B2, “1,2,3,4-tetrahydro-quinoline derivatives as CETP inhibitors” (Janssen Pharmaceutica NV, priority 2006, dated 2011)
“And” between values parts separate entries of the source, which are not always exact repeats. Equal values may be shown once.

Target: T1, CETP (Homo sapiens, UniProt P11597)
T1 construct: from tissue; host or cells: human plasma from normal volunteers
T1 sequence (P11597 18-493): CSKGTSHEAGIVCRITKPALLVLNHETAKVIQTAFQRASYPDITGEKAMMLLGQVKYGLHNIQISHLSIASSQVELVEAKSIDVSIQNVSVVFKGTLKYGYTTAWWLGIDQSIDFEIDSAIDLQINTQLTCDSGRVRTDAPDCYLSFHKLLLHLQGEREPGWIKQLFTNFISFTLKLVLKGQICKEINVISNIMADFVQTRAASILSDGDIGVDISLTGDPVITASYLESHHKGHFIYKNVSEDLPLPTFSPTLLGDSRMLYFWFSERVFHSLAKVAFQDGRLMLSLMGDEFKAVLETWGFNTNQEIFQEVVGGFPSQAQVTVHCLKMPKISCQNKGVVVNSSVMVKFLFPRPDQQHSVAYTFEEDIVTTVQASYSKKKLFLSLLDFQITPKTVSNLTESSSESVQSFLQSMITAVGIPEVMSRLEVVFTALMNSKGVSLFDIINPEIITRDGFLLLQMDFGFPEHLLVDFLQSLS
Test: CETP in vitro assay (Amersham kit TRKQ7005; modified protocol in human plasma, [3H]CE-HDL transfer)
Format: biochemical
Details: for inhibition at 1 µM / % Inhibition @ 1 μM: 1 μM compound; for inhibition at 1 µM: read-out: % Inhibition @ 1 μM; for IC50: from plots of % control versus compound concentration
Description: The CETP inhibitory activity of the compounds was determined using a commercially available kit from Amersham Biosciences (Catalog #TRKQ7005).
Briefly, 80 μl of human plasma (obtained from normal volunteers), approximately 25 μg/ml (20 μl) of [^3H]CE-HDL (Amersham Biosciences from kit TRKQ7005) and 1 μl of compound dissolved in DMSO was incubated for at least 4 hrs at 37° C. and non-specific transfer was determined by incubating a corresponding plate at 4° C. (blank). After the incubation period, 10 μl of a solution of 1% Dextralip 50/0.5M MgCl2, pH 7.4 was added, vortexed and incubated at room temperature for 10 min. The plate was then centrifuged for 30 min at 10° C. at 300 rpm in a Sorvall RT6000B centrifuge. Fifty microliters of the supernatant was transferred to a Picoplate (Packard) containing 100 μl of Microscint 40 (Perkin Elmer) and mixed for 30 min using a plate mixer. The radioactivity was counted using a TopCount (Perkin Elmer) and the % control was determined in the samples using the following formula: % transfer relative to vehicle controls (% control)=[cpm blank−cpm test]/cpm blank/cpm control]×100. IC50s were calculated from plots of the % control versus compound concentration.

| SMILES | inhibition at 1 µM [%] | % Inhibition @ 1 μM | IC50 |
| --- | --- | --- | --- |
| C[C@@H](O)CN1c2cccc(-c3cccc(F)c3)c2CC[C@H]1c1cccc(OC(F)(F)F)c1 [Compound 56] | 0 | – | – |
| OC(CN1c2cccc(-c3cccc(OC(F)(F)F)c3)c2CCC1c1cccc(F)c1)C(F)(F)F (stereo not shown) [Compound 24, 1,1,1-Trifluoro-3-[2-(3-fluoro-phenyl)-5-(3-trifluoromethoxy-phenyl)-3,4-dihydro-2H-quinolin-1-yl]-propan-2-ol] | – | 4% | – |
| CCC1CCc2c(-c3cccc(OC(F)(F)F)c3)cccc2N1Cc1cccc(OC(F)(F)F)c1 (stereo not shown) [Compound 39, 2-Ethyl-1-(3-trifluoromethoxy-benzyl)-5-(3-trifluoromethoxy-phenyl)-1,2,3,4-tetrahydro-quinoline] | 17 | – | – |
| COc1cccc(C2CCc3c(-c4cccc(OC(F)(F)F)c4)cccc3N2CC(O)C(F)(F)F)c1 (stereo not shown) [Compound 25, 1,1,1-Trifluoro-3-[2-(3-methoxy-phenyl)-5-(3-trifluoromethoxy-phenyl)-3,4-dihydro-2H-quinolin-1-yl]-propan-2-ol] | – | 59% and 74% | 582 nM |
| OC(CN1c2cccc(-c3cccc(OC(F)(F)F)c3)c2CCC1c1cccc(C(F)(F)F)c1)C(F)(F)F (stereo not shown) [Compound 18, 1,1,1-Trifluoro-3-[5-(3-trifluoromethoxy-phenyl)-2-(3-trifluoromethyl-phenyl)-3,4-dihydro-2H-quinolin-1-yl]-propan-2-ol] | – | 40% and 35% | 2900 nM |
| OC(CN1c2cccc(-c3cccc(OC(F)(F)F)c3)c2CCC1c1ccc(OC(F)(F)C(F)F)cc1)C(F)(F)F (stereo not shown) [Compound 22, 1,1,1-Trifluoro-3-[2-[4-(1,1,2,2-tetrafluoro-ethoxy)-phenyl]-5-(3-trifluoromethoxy-phenyl)-3,4-dihydro-2H-quinolin-1-yl]-propan-2-ol] | – | 14% | – |
| OC(CN1c2cccc(-c3ccsc3)c2CCC1c1cccc(OC(F)(F)C(F)F)c1)C(F)(F)F (stereo not shown) [Compound 65, 1,1,1-Trifluoro-3-{2-[3-(1,1,2,2-tetrafluoro-ethoxy)-phenyl]-5-thiophen-3-yl-3,4-dihydro-2H-quinolin-1-yl}-propan-2-ol] | – | 16% | – |
| OC(CN1c2cccc(-c3cccc(OC(F)(F)F)c3)c2CCC1c1cccc(OC(F)(F)F)c1)C(F)(F)F (stereo not shown) [Compound 32, 3-[2,5-Bis-(3-trifluoromethoxy-phenyl)-3,4-dihydro-2H-quinolin-1-yl]-1,1,1-trifluoro-propan-2-ol] | – | 34% | – |
| OC(CN1c2cccc(-c3cccc(OC(F)(F)F)c3)c2CCC1c1ccccc1)C(F)(F)F (stereo not shown) [Compound 19, 1,1,1-Trifluoro-3-[2-phenyl-5-(3-trifluoromethoxy-phenyl)-3,4-dihydro-2H-quinolin-1-yl]-propan-2-ol] | – | 21% | – |
| O[C@@H](CN1c2cccc(-c3cccc(OC(F)(F)F)c3)c2CC[C@H]1c1cccc(OC(F)(F)C(F)F)c1)C(F)(F)F [Compound 80, (2S, αS)-3,4-Dihydro-2-[3-(1,1,2,2-tetrafluoroethoxy)phenyl]-5-[3-(trifluoromethoxy)phenyl]-α-(trifluoromethyl)-1(2H)-quinolineethanol] | 20 | – | – |
| OC(CCl)CN1c2cccc(-c3cccc(OC(F)(F)F)c3)c2CCC1c1cccc(OC(F)(F)F)c1 (stereo not shown) [Compound 48, 1-[2,5-Bis-(3-trifluoromethoxy-phenyl)-3,4-dihydro-2H-quinolin-1-yl]-3-chloro-propan-2-ol] | – | 0% | – |
| OC(CN1c2cccc(-c3ccc(C(F)(F)F)cc3)c2CCC1c1cccc(OC(F)(F)C(F)F)c1)C(F)(F)F (stereo not shown) [Compound 3, 1,1,1-Trifluoro-3-[2-[3-(1,1,2,2-tetrafluoro-ethoxy)-phenyl]-5-(4-trifluoromethyl-phenyl)-3,4-dihydro-2H-quinolin-1-yl]-propan-2-ol] | – | 85% | 500 nM |
| OC(CN1c2cccc(-c3cccc(OC(F)(F)F)c3)c2CCC1c1cccc(F)c1)C(F)(F)F (stereo not shown) [Compound 23, 1,1,1-Trifluoro-3-[2-(3-fluoro-phenyl)-5-(3-trifluoromethoxy-phenyl)-3,4-dihydro-2H-quinolin-1-yl]-propan-2-ol] | – | 33% | – |
| OC(CN1c2cccc(-c3cccc(OC(F)(F)F)c3)c2CCC1c1cccc(Cl)c1)C(F)(F)F (stereo not shown) [Compound 29, 3-[2-(3-Chloro-phenyl)-5-(3-trifluoromethoxy-phenyl)-3,4-dihydro-2H-quinolin-1-yl]-1,1,1-trifluoro-propan-2-ol] | – | 39% | 290 nM |
| COc1cccc(-c2cccc3c2CC[C@@H](c2cccc(OC(F)(F)F)c2)N3C[C@@H](C)O)c1 [Compound 60] | 5 | – | – |
| COc1cccc(-c2cccc3c2CCC(c2cccc(OC(F)(F)C(F)F)c2)N3CC(O)C(F)(F)F)c1 (stereo not shown) [Compound 72, 1,1,1-Trifluoro-3-{5-(3-methoxy-phenyl)-2-[3-(1,1,2,2-tetrafluoro-ethoxy)-phenyl]-3,4-dihydro-2H-quinolin-1-yl}-propan-2-ol] | – | 75% and 62% | 160 nM and 93 nM |
| OC(CN1c2cccc(-c3cccc(F)c3)c2CCC1c1cccc(OC(F)(F)F)c1)C(F)(F)F (stereo not shown) [Compound 58, 1,1,1-Trifluoro-3-[5-(3-fluoro-phenyl)-2-(3-trifluoromethoxy-phenyl)-3,4-dihydro-2H-quinolin-1-yl]-propan-2-ol] | – | 40% | – |
| COc1cccc(C2CCc3c(-c4cccc(OC(F)(F)F)c4)cccc3N2CC(O)C(F)(F)F)c1 (stereo not shown) [Compound 26, 1,1,1-Trifluoro-3-[2-(3-methoxy-phenyl)-5-(3-trifluoromethoxy-phenyl)-3,4-dihydro-2H-quinolin-1-yl]-propan-2-ol] | – | 4% | – |
| OC(CN1c2cccc(-c3cccs3)c2CCC1c1cccc(OC(F)(F)C(F)F)c1)C(F)(F)F (stereo not shown) [Compound 74, 1,1,1-Trifluoro-3-{2-[3-(1,1,2,2-tetrafluoro-ethoxy)-phenyl]-5-thiophen-2-yl-3,4-dihydro-2H-quinolin-1-yl}-propan-2-ol] | – | 60% and 66% | 380 nM and 255 nM |
| C[C@@H](O)CN1c2cccc(-c3cccc(OC(F)(F)F)c3)c2CC[C@@H]1c1cccc(OC(F)(F)F)c1 [Compound 53] | – | 57% and 77% and 84% | 90 nM and 199 nM and 85 nM |
| OC(CN1c2cccc(-c3cccc(OC(F)(F)F)c3)c2CCC1c1cccc(Cl)c1)C(F)(F)F (stereo not shown) [Compound 30, 3-[2-(3-Chloro-phenyl)-5-(3-trifluoromethoxy-phenyl)-3,4-dihydro-2H-quinolin-1-yl]-1,1,1-trifluoro-propan-2-ol] | – | 13% | – |
| N#Cc1cccc(-c2cccc3c2CCC(c2cccc(OC(F)(F)C(F)F)c2)N3CC(O)C(F)(F)F)c1 (stereo not shown) [Compound 9, 3-[2-[3-(1,1,2,2-Tetrafluoro-ethoxy)-phenyl]-1-(3,3,3-trifluoro-2-hydroxy-propyl)-1,2,3,4-tetrahydro-quinolin-5-yl]-benzonitrile] | – | 82% and 85% | 177 nM and 293 nM |
| COc1cccc(-c2cccc3c2CCC(c2cccc(OC(F)(F)C(F)F)c2)N3CC(O)C(F)(F)F)c1 (stereo not shown) [Compound 73, 1,1,1-Trifluoro-3-{5-(3-methoxy-phenyl)-2-[3-(1,1,2,2-tetrafluoro-ethoxy)-phenyl]-3,4-dihydro-2H-quinolin-1-yl}-propan-2-ol] | – | 50% and 26% | – |
| OC(CN1c2cccc(-c3cccc(OC(F)(F)F)c3)c2CCC1c1cccc(OC(F)(F)C(F)F)c1)C(F)(F)F (single isomer, unassigned) [Compound 2, 1,1,1-Trifluoro-3-[2-[3-(1,1,2,2-tetrafluoro-ethoxy)-phenyl]-5-(3-trifluoromethoxy-phenyl)-3,4-dihydro-2H-quinolin-1-yl]-propan-2-ol] | – | 86% | 450 nM and 150 nM |
| O[C@@H](CN1c2cccc(-c3cccc(F)c3)c2CC[C@@H]1c1cccc(OC(F)(F)C(F)F)c1)C(F)(F)F [Compound 82, (2R, αS)-3,4-Dihydro-2-[3-(1,1,2,2-tetrafluoroethoxy)phenyl]-5-[3-(fluoro)phenyl]-α-(trifluoromethyl)-1(2H)-quinolineethanol] | 84 | 76% | 122 nM and 93 nM |
| CC(C)Oc1cccc(-c2cccc3c2CCC(c2cccc(OC(F)(F)C(F)F)c2)N3CC(O)C(F)(F)F)c1 (stereo not shown) [Compound 69, 1,1,1-Trifluoro-3-{5-(3-isopropoxy-phenyl)-2-[3-(1,1,2,2-tetrafluoro-ethoxy)-phenyl]-3,4-dihydro-2H-quinolin-1-yl}-propan-2-ol] | – | 18% | – |
